Converted amounts (≈) assume the structure as drawn.
Tests used:
[1] = test system: Escherichia coli (E. coli) BAS849; experiment: Antibacterial activity, microbroth dilution MIC (Table 1); format: cell-based; settings: microbroth dilution, super sensitive Gram-negative E. coli BAS849, read-out: MIC, BAS849
Outline: (§1)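 Broth microdilution against S. aureus 29213, E. coli 25922 and hypersensitive E. coli BAS849. MIC in μg/mL is the lowest drug concentration preventing macroscopically visible growth under test conditions.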

[2] = test system: Staphylococcus aureus (S. aureus) 29213; experiment: as above; format: cell-based; settings: microbroth dilution, Gram-positive S. aureus 29213, read-out: MIC, 29213
Outline: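 MIC (μg/mL) is taken as the lowest concentration with no macroscopically visible growth. Strains tested by microbroth dilution: Gram-positive S. aureus 29213, control Gram-negative E. coli 25922, and super-sensitive E. coli BAS849.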

E. coli 25922 = experiment: as above; format: cell-based, Escherichia coli; settings: Escherichia coli; microbroth dilution; control Gram-negative E. coli 25922 strain; read-out: MIC, 25922
Outline: as §1

E. coli LZ3111 = experiment: Antibacterial activity, MIC, quinolone resistant strain (Table 2); format: cell-based; settings: Escherichia coli, LZ3111, read-out: MIC LZ3111
Outline: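 Microbroth dilution method; MIC (μg/mL) is the lowest drug concentration preventing macroscopically visible growth under test conditions.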

[3] = test system: Acinetobacter baumannii (A. baumannii) BAA747; experiment: Antibacterial activity, MIC (Table 4); format: cell-based; settings: A. baumannii BAA747, read-out: MIC, BAA747
Outline: (§2)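 MIC (μg/mL) by microbroth dilution, taken as the lowest drug concentration preventing macroscopically visible growth. MXX strains are multi-drug resistant clinical isolates.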

[4] = test system: Klebsiella pneumoniae (K. pneumoniae) 35657; experiment: Antibacterial activity, MIC (Table 4); format: cell-based; settings: K. pneumoniae 35657, read-out: MIC, 35657
Outline: as §2

A. baumannii MXX2240 = experiment: Antibacterial activity, MIC, resistant strain (Table 4); format: cell-based; settings: Acinetobacter baumannii, MXX2240; resistant A. baumannii MMX2240, multi-drug resistant clinical isolate; read-out: MIC, MMX2240
Outline: as §2

K. pneumoniae MXX1232 = experiment: as above; format: cell-based; settings: Klebsiella pneumoniae, MXX1232; resistant K. pneumoniae MMX1232, multi-drug resistant clinical isolate; read-out: MIC, MMX1232
Outline: as §2

[5] = test system: Pseudomonas aeruginosa (P. aeruginosa) 27853; experiment: Antibacterial activity, MIC (Table 5); format: cell-based; settings: P. aeruginosa 27853, read-out: MIC, 27853
Outline: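 Activity was measured by microbroth dilution. The MIC, in μg/mL, is the lowest drug concentration that prevents macroscopically visible growth under the test conditions.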

| SMILES | MIC [1] | MIC [2] | MIC (E. coli 25922) | MIC (E. coli LZ3111) | MIC [3] | MIC [4] | MIC (A. baumannii MXX2240) | MIC (K. pneumoniae MXX1232) | MIC [5] |
| --- | --- | --- | --- | --- | --- | --- | --- | --- | --- |
| CCCc1ccc2[nH]c(-c3[nH]c(=O)c(C(=O)O)c(O)c3CC)cc2c1 [Cpd 383, 5-ethyl-4-hydroxy-2-oxo-6-(5-propyl-1H-indol-2-yl)-1,2-dihydropyridine-3-carboxylic acid] | < 1 µg/mL | 3.5 to 12.5 µg/mL (≈ 10.3 to 36.7 µM) | 12.5 to 150 µg/mL (≈ 36.7 to 441 µM) | 12.5 to 150 µg/mL (≈ 36.7 to 441 µM) | 12.5 to 150 µg/mL (≈ 36.7 to 441 µM) | 12.5 to 150 µg/mL (≈ 36.7 to 441 µM) | 12.5 to 150 µg/mL (≈ 36.7 to 441 µM) | 12.5 to 150 µg/mL (≈ 36.7 to 441 µM) | 12.5 to 150 µg/mL (≈ 36.7 to 441 µM) |
| CC(C)c1c(-c2ccc3c(c2)cc(CN(C)C)n3C)[nH]c(=O)c(C(=O)O)c1O [Cpd 318, 6-(2-((dimethylamino)methyl)-1-methyl-1H-indol-5-yl)-4-hydroxy-5-isopropyl-2-oxo-1,2-dihydropyridine-3-carboxylic acid] | < 1 µg/mL | 12.5 to 150 µg/mL (≈ 32.6 to 391 µM) | 1 to 3.5 µg/mL (≈ 2.61 to 9.13 µM) | 12.5 to 150 µg/mL (≈ 32.6 to 391 µM) | 12.5 to 150 µg/mL (≈ 32.6 to 391 µM) | 3.5 to 12.5 µg/mL (≈ 9.13 to 32.6 µM) | 12.5 to 150 µg/mL (≈ 32.6 to 391 µM) | 12.5 to 150 µg/mL (≈ 32.6 to 391 µM) | 12.5 to 150 µg/mL (≈ 32.6 to 391 µM) |
| CCc1c(-c2ccc3c(ccn3-c3ccccc3)c2)[nH]c(=O)c(C(=O)O)c1O [Cpd 435, 5-ethyl-4-hydroxy-2-oxo-6-(1-phenyl-1H-indol-5-yl)-1,2-dihydropyridine-3-carboxylic acid] | < 1 µg/mL | < 1 µg/mL | 12.5 to 150 µg/mL (≈ 33.4 to 401 µM) | 12.5 to 150 µg/mL (≈ 33.4 to 401 µM) | 12.5 to 150 µg/mL (≈ 33.4 to 401 µM) | 12.5 to 150 µg/mL (≈ 33.4 to 401 µM) | 12.5 to 150 µg/mL (≈ 33.4 to 401 µM) | 12.5 to 150 µg/mL (≈ 33.4 to 401 µM) | 12.5 to 150 µg/mL (≈ 33.4 to 401 µM) |
| Cc1c(-c2ccc3c(c2)cc(CNC(C)C)n3C)[nH]c(=O)c(C(=O)O)c1O [Cpd 348, 4-hydroxy-6-(2-((isopropylamino)methyl)-1-methyl-1H-indol-5-yl)-5-methyl-2-oxo-1,2-dihydropyridine-3-carboxylic acid] | < 1 µg/mL | 12.5 to 150 µg/mL (≈ 33.8 to 406 µM) | 3.5 to 12.5 µg/mL (≈ 9.47 to 33.8 µM) | 1 to 3.5 µg/mL (≈ 2.71 to 9.47 µM) | 1 to 3.5 µg/mL (≈ 2.71 to 9.47 µM) | 1 to 3.5 µg/mL (≈ 2.71 to 9.47 µM) | 1 to 3.5 µg/mL (≈ 2.71 to 9.47 µM) | 12.5 to 150 µg/mL (≈ 33.8 to 406 µM) | 12.5 to 150 µg/mL (≈ 33.8 to 406 µM) |
| CCc1c(-c2cn3ccccc3n2)[nH]c(=O)c(C(=O)O)c1O [Cpd 400, 5-ethyl-4-hydroxy-6-(imidazo[1,2-a]pyridin-2-yl)-2-oxo-1,2-dihydropyridine-3-carboxylic acid] | 1 to 3.5 µg/mL (≈ 3.34 to 11.7 µM) | 12.5 to 150 µg/mL (≈ 41.8 to 501 µM) | 12.5 to 150 µg/mL (≈ 41.8 to 501 µM) | 12.5 to 150 µg/mL (≈ 41.8 to 501 µM) | 12.5 to 150 µg/mL (≈ 41.8 to 501 µM) | 12.5 to 150 µg/mL (≈ 41.8 to 501 µM) | 12.5 to 150 µg/mL (≈ 41.8 to 501 µM) | 12.5 to 150 µg/mL (≈ 41.8 to 501 µM) | 12.5 to 150 µg/mL (≈ 41.8 to 501 µM) |
| Cc1c(-c2ccc3c(c2)cc(CNC2(C)CC2)n3C)[nH]c(=O)c(C(=O)O)c1O [Cpd 356, 4-hydroxy-5-methyl-6-(1-methyl-2-((1-methylcyclopropylamino)methyl)-1H-indol-5-yl)-2-oxo-1,2-dihydropyridine-3-carboxylic acid] | < 1 µg/mL | 3.5 to 12.5 µg/mL (≈ 9.18 to 32.8 µM) | 3.5 to 12.5 µg/mL (≈ 9.18 to 32.8 µM) | < 1 µg/mL | < 1 µg/mL | 3.5 to 12.5 µg/mL (≈ 9.18 to 32.8 µM) | < 1 µg/mL | 12.5 to 150 µg/mL (≈ 32.8 to 393 µM) | 12.5 to 150 µg/mL (≈ 32.8 to 393 µM) |
| CCc1c(-c2ccc3[nH]ncc3c2)[nH]c(=O)c(C(=O)O)c1O [Cpd 392, 5-ethyl-4-hydroxy-6-(1H-indazol-5-yl)-2-oxo-1,2-dihydropyridine-3-carboxylic acid] | 3.5 to 12.5 µg/mL (≈ 11.7 to 41.8 µM) | 12.5 to 150 µg/mL (≈ 41.8 to 501 µM) | 12.5 to 150 µg/mL (≈ 41.8 to 501 µM) | 3.5 to 12.5 µg/mL (≈ 11.7 to 41.8 µM) | 12.5 to 150 µg/mL (≈ 41.8 to 501 µM) | 3.5 to 12.5 µg/mL (≈ 11.7 to 41.8 µM) | 12.5 to 150 µg/mL (≈ 41.8 to 501 µM) | 12.5 to 150 µg/mL (≈ 41.8 to 501 µM) | 12.5 to 150 µg/mL (≈ 41.8 to 501 µM) |
| Cc1c(-c2ccc3cc[nH]c3c2)[nH]c(=O)c(C(=O)O)c1O [Cpd 424, 4-hydroxy-6-(1H-indol-6-yl)-5-methyl-2-oxo-1,2-dihydropyridine-3-carboxylic acid] | 3.5 to 12.5 µg/mL (≈ 12.3 to 44 µM) | 3.5 to 12.5 µg/mL (≈ 12.3 to 44 µM) | 12.5 to 150 µg/mL (≈ 44 to 528 µM) | < 1 µg/mL | 12.5 to 150 µg/mL (≈ 44 to 528 µM) | 12.5 to 150 µg/mL (≈ 44 to 528 µM) | < 1 µg/mL | 12.5 to 150 µg/mL (≈ 44 to 528 µM) | 12.5 to 150 µg/mL (≈ 44 to 528 µM) |

From patent publication US9409905B2, “Antibacterial compounds and methods for use” (PTC THERAPEUTICS, INC., priority 2011, dated 2016)
